Data published in paper PMC2845622, “An Expanded Self-Antigen Peptidome Is Carried by the Human Lymph As Compared to the Plasma” (PLoS ONE, 2010).
pIC50: −log10 of the molar value. Like-named read-outs stand apart in the source and are kept apart here. Ends that are not written are not given here.

Key:
[1] = target: HLA-DR4 (HLA-DRA*0101,-DRB1*0401) (Homo sapiens, UniProt P01903+P01911, A100K/A169T/F76Y/I96L/K127E/L162R/M171V/N62H/P40V/Q125Y/R42H/S133A/S149N/S66Y/V115G/V209L/W38E); test: Competition fluorescence polarization peptide binding assay, HLA-DR4 with HLA-DM
[2] = system: lymph node T cells of HLA-DR1 or HLA-DR4 transgenic mice; test: T cell proliferation (thymidine incorporation) in lymph nodes from peptide immunized mice; format: cell-based, mouse; details: mice immunized with 100 µg peptide in complete Freund's adjuvant, lymph nodes 14 days later, 72 h culture with titrated peptide
Protocol: Finally we asked whether any of the tight-binding peptides, which also were conserved between mouse and human, could be recognized by peripheral T cells. HLA-DR1 or HLA-DR4 transgenic mice were immunized with 100 µg of several of the extracellular matrix peptides in complete Freund's adjuvant in the flanks and nape of the neck. Draining lymph nodes were collected 14 days later and reactive T cells analyzed by proliferation assay with thymidine incorporation.
HLA-DR1 and HLA-DR4 mice were immunized in the flanks and nape of the neck with 100 micrograms of peptide emulsion in Freund's adjuvant. Two weeks later popliteal and axillary lymph nodes were harvested and tested in proliferation assay. Briefly 6×10^5 cells were seeded in a 96 well plate with or without titrated amount of the immunizing peptide for 72 hours. Thymidine ([…]) was added 18 hours before cell harvesting. Cells were harvested on a Tomtec harvester (Model 94-3-468) and incorporated thymidine counted on a liquid scintillation counter (1450 Microbeta Wallac Trilux).

[3] = target: HLA-DR1 (HLA-DRA*0101,-DRB1*0101) (Homo sapiens, UniProt P01903+P01911, A100R/D57E/F55L/F60I/F76Y/I96L/L162R/M171V/P40L/Q125E/R42F/V115G/Y59C); test: Competition fluorescence polarization peptide binding assay, HLA-DR1; details: competition with Alexa488-HA peptide 25 nM, HLA-DR1 100 nM, 3 days at 37°C, citrate pH 5/5.5; mean of single fit to triplicate values
[4] = competition with Alexa488-HA peptide 25 nM, HLA-DR4 and HLA-DM 100 nM each, 1 mM DTT, 3 days at 37°C, citrate pH 5/5.5, mean of single fit to triplicate values, read-out: DR4 IC50

Substance | pIC50 [1, 4] | Proliferative response of draining lymph node T cells to immunizing peptide [2] | pIC50 [3] | pIC50 [1]
Ac-DPFRLQSTSQHN [dpFRLQsTsQHn] | 5.89 | significant proliferation index | – | –
Ac-EDTFAHLTPTPT [edtFAHLTPTPT] | – | – | 5.77 | –
Ac-GALLGAPPPLVPAP [gaLLGAPPPLVpap] | 5.06 | – | 4.97 | –
Ac-HQVSINNTAVMQRL [hqVSINNTAVMqrl] | 5.33 | – | 4.38 | –
Ac-KNFASVQGVSLESG [knFASVQGVSLesg] | – | – | 6.38 | –
Ac-NGVVGPTGPVGAAGP-NH2 [ngvVGPTGPVGAagp] | < 4.00 | – | – | –
Ac-NGVVGPTGPVGAAGPA-NH2 [ngVVGPTGPVGaagpa] | < 4.00 | – | 4.74 | –
Ac-PGALLGAPPPLVPAP [pgaLLGAPPPLVpap] | – | – | – | < 4.00
Ac-PQGFQGNPGEPGE [pqgFQGNPGEPGe] | < 4.00 | – | 6.10 | –
Ac-SPWIDASTAIDA [spWIDASTAIDa] | 4.22 | – | – | –
MGPMGPRGPPGPA-NH2 [MGPMGPRGPpgpa] | < 4.00 | – | – | –
MLQGTSSVLLLWG-NH2 [mLQGTsSVLLlwg] | 4.10 | – | 4.20 | –
NYAILRNLQP [nYAILRNLQP] | 4.25 | – | 4.26 | –
